In paper PMC5681660, “Reduced hepatitis B and D viral entry using clinically applied drugs as novel inhibitors of the bile acid transporter NTCP” (Scientific Reports, 2017):
Structures can show the parent of a compound that is named as a salt. Where two headings read alike, the source gives them in different places.

Legend:
human NTCP [1] = molecular target: T1, human NTCP (Homo sapiens, UniProt Q14973); test: Screening fluorescent competitive Myrcludex B-FITC binding assay (96-well, 10 µM drug)
T1 sequence (Q14973 1-349): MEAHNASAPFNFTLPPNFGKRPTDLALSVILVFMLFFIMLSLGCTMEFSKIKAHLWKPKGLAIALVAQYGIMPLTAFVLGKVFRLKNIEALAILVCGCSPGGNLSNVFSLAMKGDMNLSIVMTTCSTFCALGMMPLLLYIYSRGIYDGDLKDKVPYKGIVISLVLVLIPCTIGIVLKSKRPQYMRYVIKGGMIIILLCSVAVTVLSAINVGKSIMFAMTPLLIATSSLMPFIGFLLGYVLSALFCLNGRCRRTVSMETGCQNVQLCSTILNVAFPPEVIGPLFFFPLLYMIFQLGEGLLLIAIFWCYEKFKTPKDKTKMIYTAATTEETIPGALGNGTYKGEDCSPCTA

human NTCP [2] = molecular target: T1, human NTCP; test: Screening taurocholate uptake assay (96-well, [14C]taurocholate, 10 µM drug)
[3] = Prestwick library screen, 10 µM drug, B-score of Myrcludex B-FITC binding
[4] = Prestwick library screen, 10 µM drug, B-score of taurocholate uptake
[5] = combined ranking from functional and binding assay B-scores
[6] = Prestwick library screen, Myrcludex B-FITC binding, 10 µM drug
[7] = Prestwick library screen, taurocholate uptake, 10 µM drug
[8] = ranking score beside the functional and binding assay B-scores of the screen
[9] = screen, 10 µM drug, Myrcludex B-FITC binding
[10] = combined ranking from functional and binding screening assays
[11] = screen, 10 µM drug, taurocholate uptake

| Structure (SMILES) | B-score binding assay (human NTCP [1]; [6]) | B-score functional assay (human NTCP [2]; [7]) | Ranking score (human NTCP [2]; [8]) | B-score binding assay (human NTCP [1]; [9]) | Ranking score (human NTCP [2]; [10]) | B-score functional assay (human NTCP [2]; [11]) | other results |
| --- | --- | --- | --- | --- | --- | --- | --- |
| CN(c1nccc(=O)[nH]1)C1CCN(c2nc3ccccc3n2Cc2ccc(F)cc2)CC1 [Mizolastine] | – | – | – | – | – | – | B-score binding assay (human NTCP [1]; [3]): 0.089; B-score functional assay (human NTCP [2]; [4]): 0.906; Ranking score (human NTCP [2]; [5]): 877.518 |
| CCn1cc(C(=O)O)c(=O)c2cnc(N3CCCC3)nc21 [Piromidic acid] | – | – | – | – | – | – | B-score binding assay (human NTCP [1]; [3]): 0.041; B-score functional assay (human NTCP [2]; [4]): 1.197; Ranking score (human NTCP [2]; [5]): 874.684 |
| COc1cccc2c1C(=O)c1c(O)c3c(c(O)c1C2=O)C[C@@](O)(C(C)=O)C[C@@H]3O[C@H]1C[C@H](N)[C@H](O)[C@H](C)O1 [Daunorubicin hydrochloride] | 6.093 | -0.357 | 740.439 | – | – | – | – |
| Cc1cc(C)nc([N-]S(=O)(=O)c2ccc(N)cc2)n1.[Na+] [Sulfamethazine sodium salt] | 0.015 | 0.394 | 760.788 | – | – | – | – |
| CCCN1C[C@H](CSC)C[C@@H]2c3cccc4[nH]cc(c34)C[C@H]21 [Pergolide mesylate] | 0.514 | -0.089 | 708.625 | – | – | – | – |
| CNC1(C)C2CCC(C2)C1(C)C (stereo not drawn) [Mecamylamine hydrochloride] | – | – | – | -0.663 | 340.338 | -0.591 | – |
| Cc1c(N)c(=O)n(-c2ccccc2)n1C [Ampyrone] | – | – | – | – | – | – | B-score binding assay (human NTCP [1]): 0.217; B-score functional assay (human NTCP [2]): 0.135; Ranking score (human NTCP [2]): 788.348 |
| C=CCN1CC[C@]23c4c5ccc(O)c4O[C@H]2C(=O)CC[C@@]3(O)[C@H]1C5 [Naloxone hydrochloride] | – | – | – | – | – | – | B-score binding assay (human NTCP [1]): 0; Ranking score (human NTCP [2]; combined ranking of functional and binding screening assays): 578.749; B-score functional assay (human NTCP [2]; screening taurocholate uptake, 10 µM drug): -0.111 |
| CCN(CC)CCCC(C)Nc1c2ccc(Cl)cc2nc2ccc(OC)cc12.Cl.Cl (stereo not drawn) [Quinacrine dihydrochloride hydrate] | – | – | – | 7.101 | 399.375 | -2.093 | – |
| COc1nc(C)nc(Cl)c1N=C1NCCN1 [Moxonidine] | – | – | – | -0.494 | 427.083 | -0.211 | – |
| CC(C)(C)NC[C@H](O)COc1ccccc1C1CCCC1 [Penbutolol sulfate] | – | – | – | -1.346 | 368.646 | 0.103 | – |
| CNC(C)(C)Cc1ccccc1.CNC(C)(C)Cc1ccccc1.O=S(=O)(O)O [Mephentermine hemisulfate] | 0.758 | -0.093 | 728.877 | – | – | – | – |
| COc1ccc2[nH]c([S+]([O-])Cc3ncc(C)c(OC)c3C)nc2n1 (stereo not drawn) [Tenatoprazole] | – | – | – | – | – | – | B-score binding assay (human NTCP [1]): -1.326; B-score functional assay (human NTCP [2]): -1.232; Ranking score (human NTCP [2]): 199.975 |
| CC1(C)OC(=O)NC1=O [Dimethadione] | – | – | – | -1.829 | 328.253 | 0.349 | – |
| O=C(O)c1ccccc1C(=O)Nc1ccc(S(=O)(=O)Nc2nccs2)cc1 [Phthalylsulfathiazole] | – | – | – | – | – | – | B-score binding assay (human NTCP [1]; [3]): 1.374; B-score functional assay (human NTCP [2]; [4]): 1.113; Ranking score (human NTCP [2]; [5]): 1099.94 |
| Cc1nc2n(c(=O)c1CCN1CCC(c3noc4cc(F)ccc34)CC1)CCCC2 [Risperidone] | – | – | – | – | – | – | B-score binding assay (human NTCP [1]; [3]): 1.724; B-score functional assay (human NTCP [2]; [4]): 0.025; Ranking score (human NTCP [2]; [5]): 888.472 |
| COc1cccc(N(C)C(=S)Oc2ccc3c(c2)CCCC3)n1 [Liranaftate] | – | – | – | – | – | – | B-score binding assay (human NTCP [1]; [3]): 0.615; B-score functional assay (human NTCP [2]; [4]): 0.374; Ranking score (human NTCP [2]; [5]): 904.804 |
| NCC1(CC(=O)O)CCCCC1 [Gabapentin] | – | – | – | 0.068 | 428.131 | -0.982 | – |

| Structure (SMILES) | B-score binding assay (human NTCP [1]; [6]) | B-score functional assay (human NTCP [2]; [7]) | Ranking score (human NTCP [2]; [8]) | B-score binding assay (human NTCP [1]; [9]) | Ranking score (human NTCP [2]; [10]) | B-score functional assay (human NTCP [2]; [11]) | other results |
| --- | --- | --- | --- | --- | --- | --- | --- |
| COc1ccc(C(=O)NCc2cccnc2)cc1C(=O)NCc1cccnc1.O [Picotamide monohydrate] | 0.672 | -0.041 | 752.987 | – | – | – | – |
| COCCc1ccc(OCC(O)CNC(C)C)cc1.COCCc1ccc(OCC(O)CNC(C)C)cc1.O=C(O)C(O)C(O)C(=O)O (racemic) [Metoprolol-(+,-) (+)-tartrate salt] | – | – | – | -0.835 | 295.567 | -0.726 | – |
| CNCCC=C1c2ccccc2C=Cc2ccccc21 [Norcyclobenzaprine] | -0.001 | 0.855 | 807.009 | – | – | – | – |
| CCN(CC)C(=O)Nc1ccc(OCC(O)CNC(C)(C)C)c(C(C)=O)c1 (stereo not drawn) [Celiprolol HCl] | – | – | – | – | – | – | B-score binding assay (human NTCP [1]; [3]): 1.474; B-score functional assay (human NTCP [2]; [4]): 0.793; Ranking score (human NTCP [2]; [5]): 1068.26 |
| CN(Cc1cnc2nc(N)nc(N)c2n1)c1ccc(C(=O)N[C@@H](CCC(=O)O)C(=O)O)cc1 [Methotrexate] | -0.007 | 0.045 | 661.494 | – | – | – | – |
| C[C@]12C[C@H](O)[C@H]3[C@@H](CCC4=CC(=O)CC[C@@]43C)[C@@H]1CC[C@@H]2C(=O)CO [Corticosterone] | – | – | – | -1.468 | 434.757 | 1.754 | – |
| C=CC(N)CCC(=O)O (stereo not drawn) [Vigabatrin] | 0.671 | -0.08 | 730.208 | – | – | – | – |
| O=c1n(CCCN2CCN(c3cccc(Cl)c3)CC2)nc2ccccn12 [Trazodone hydrochloride] | -0.001 | 0.169 | 707.824 | – | – | – | – |
| CC(=O)O[C@H]1C[C@@H]2CC[C@@H]3[C@H](CC[C@@]4(C)[C@H]3C[C@H]([N+]3(C)CCCCC3)[C@@H]4OC(C)=O)[C@@]2(C)C[C@@H]1N1CCCCC1 [Vecuronium bromide] | 0.155 | 0.006 | 708.114 | – | – | – | – |
| Cc1ccccc1N1C(=O)c2cc(S(N)(=O)=O)c(Cl)cc2NC1C (stereo not drawn) [Metolazone] | – | – | – | – | – | – | B-score binding assay (human NTCP [1]; [3]): 1.32; B-score functional assay (human NTCP [2]; [4]): 0.67; Ranking score (human NTCP [2]; [5]): 1031.7 |
| CCN(CC)C(=O)/C(C#N)=C/c1cc(O)c(O)c([N+](=O)[O-])c1 [Entacapone] | – | – | – | -0.647 | 366.148 | -0.441 | – |
| C[C@]12CC[C@@H]3c4ccc(O)cc4C[C@@H](CCCCCCCCC[S+]([O-])CCCC(F)(F)C(F)(F)F)[C@H]3[C@@H]1CC[C@@H]2O (stereo partly drawn) [Fulvestrant] | -0.303 | 1.208 | 701.076 | – | – | – | – |
| CC(CNC1CCCCC1)OC(=O)c1ccccc1 (stereo not drawn) [Hexylcaine hydrochloride] | – | – | – | -1.021 | 435.325 | 0.196 | – |
| CC[C@H]1OC(=O)[C@H](C)[C@@H](O[C@H]2C[C@@](C)(OC)[C@@H](O)[C@H](C)O2)[C@H](C)[C@@H](O[C@@H]2O[C@H](C)C[C@H](N(C)C)[C@H]2O)[C@](C)(OC)C[C@@H](C)C(=O)[C@H](C)[C@@H](O)[C@]1(C)O [Clarithromycin] | – | – | – | 0.501 | 370.485 | -1.781 | – |
| Nc1ccc(C(=O)NCC(=O)O)cc1 [Aminohippuric acid] | – | – | – | – | – | – | B-score binding assay (human NTCP [1]; [3]): 0.866; B-score functional assay (human NTCP [2]; [4]): 1.44; Ranking score (human NTCP [2]; [5]): 1073.5 |
| CN(C)[C@@H]1C(O)=C(C(N)=O)C(=O)[C@@]2(O)C(O)=C3C(=O)c4c(O)cccc4[C@@](C)(O)[C@H]3[C@H](O)[C@@H]12 [Oxytetracycline dihydrate] | – | – | – | – | – | – | B-score binding assay (human NTCP [1]; [3]): 1.019; B-score functional assay (human NTCP [2]; [4]): 0.414; Ranking score (human NTCP [2]; [5]): 958.668 |
| CCN(CC)CCOC(=O)C(c1ccccc1)c1ccccc1 [Adiphenine hydrochloride] | – | – | – | -0.701 | 440.174 | -0.012 | – |
